US20220054532A1, “VETERINARY COMPOSITIONS AND METHODS OF USE THEREFOR” (priority 2019, published 2022)

Experiments:
Type in all cases: in vivo
[1] = tested on: cats suffering from GI-specific inflammation; test: Example 3: GI-specific inflammation, owner-rated symptom reduction (feline); details: symptom reduction score 0 (no reduction) to 4 (resolution of symptoms); for Final Score: after 28 days BID
From the text: This example examines the ability of embodiments of the invention versus Pepcid® to treat unwanted GI-specific inflammation characterized by gastritis, reflux, vomiting, diarrhea, and inappetence.
The first patient group is twenty dogs suffering from GI-specific inflammation. The second patient group is twenty cats suffering from GI-specific inflammation. Each patient group is broken into five groups of four animals. The first groups receive Pepcid® as the sole active agent; the second groups receive a composition comprising HMW HA as the sole active agent; the third groups receive a composition comprising CBD as the sole active agent; the fourth groups receive a composition comprising HMW HA and CBD as the active agents; and the fifth groups receive a composition comprising HMW HA, CBD, and glutathione as the active agents.
Each composition is administered for a period of twenty-eight (28) days, BID. The owner observes potential reduction of symptoms at the end of treatment and rates the reduction as no reduction (score of 0), mild reduction (score of 1), moderate reduction (score of 2), significant reduction (score of 3), or resolution of symptoms (score of 4).
The following feline scores are observed and the results depicted in FIG. 3b: […]

[2] = tested on: dogs suffering from seizures; test: Example 14: seizures in dogs (CBD Complex); details: seizure scale 1 (seizure-free) to 10 (daily or multiple seizures); for Initial Score: day 0; for Final Score: day 60, BID
From the text: This example examines the ability of embodiments of the invention versus phenobarbital to treat seizures.
The patient group is twenty-four dogs suffering from seizures as diagnosed by their referring veterinarian. The patient group is broken into six groups of four animals. The first group receives phenobarbital as the sole active agent; the second group receives a composition comprising phenobarbital and Keppra®; the third group receives a composition comprising HMW HA as the sole active agent; the fourth group receives a composition comprising CBD as the sole active agent; the fifth group receives a composition comprising HMW HA and CBD Complex as the active agents; and the sixth group receives a composition comprising HMW HA, CBD Complex, valerian root, and scutillaria as the active agents.
Each composition is administered for a period of sixty (60) days, BID. Each dog is evaluated on days 0 (“Initial Score”), 15, 30, 45, and 60 (“Final Score”) of treatment. The results are averaged and characterized on a scale of 1 (seizure-free) to 10 (daily seizures or multiple seizures during the event).
The following canine scores are observed and the results depicted in FIG. 14: […]

[3] = tested on: horses suffering from joint inflammation; test: Example 12: joint inflammation, thermal imaging (equine, CBD Complex); details: over the inflamed joint, 60 days BID
From the text: This example examines the ability of embodiments of the invention versus Cosequin® to treat joint inflammation.
The first patient group is twenty dogs suffering from joint inflammation. The second patient group is twenty cats suffering from joint inflammation. The third patient group is twenty horses suffering from joint inflammation. Each patient group is broken into five groups of four animals. The first groups receive Cosequin® as the sole active agent; the second groups receive a composition comprising HMW HA as the sole active agent; the third groups receive a composition comprising CBD as the sole active agent; the fourth groups receive a composition comprising HMW HA and CBD Complex as the active agents; and the fifth groups receive a composition comprising HMW HA, CBD Complex, Boswellia, and superoxide dismutase (“SOD”) as the active agents.
Each composition is administered for a period of sixty (60) days, BID. Efficacy is determined by a decrease in body temperature over the inflamed joint, as measured by thermal imaging (e.g., via Digatherm device). Thermal imaging is performed on days 0 (“Initial Score”), 15, 30, 45, and 60 (“Final Score”) of treatment.
The following equine scores are observed and the results depicted in FIG. 12c: […]

[4] = tested on: cats suffering behavior aberrations and/or anxiety; test: Example 13: behavior aberrations and anxiety, Fe-BARQ (feline, CBD Complex); details: Fe-BARQ day 0 vs 60, SID, 0 (no improvement) to 3 (marked improvement)
From the text: This example examines the ability of embodiments of the invention versus Clomicalm® to reduce behavior aberrations and anxiety.
The first patient group is twenty dogs suffering behavior aberrations and/or anxiety, as determined by the canine behavioral assessment and research questionnaire (“C-BARQ”). […] The second patient group is twenty cats suffering behavior aberrations and/or anxiety, as determined by the feline behavioral assessment and research questionnaire (“Fe-BARQ”).
Each group is broken into five groups of four animals. The first group receives Clomicalm® as the sole active agent; the second group receives a composition comprising HMW HA as the sole active agent; the third group receives a composition comprising CBD as the sole active agent; the fourth group receives a composition comprising HMW HA and CBD Complex as the active agents; and the fifth group receives a composition comprising HMW HA, CBD Complex, valerian root, and scutillaria as the active agents.
Each composition is administered for a period of sixty (60) days, once a day (“SID”). Owners complete the species-appropriate C-BARQ or Fe-BARQ on days 0 and 60 of treatment. The results from the overall questionnaire are averaged and characterized as no improvement (score of 0), mild improvement (score of 1), moderate improvement (score of 2), or marked improvement (score of 3).

[5] = tested on: dogs suffering from cognitive dysfunction syndrome; test: Example 10: cognitive decline, Cognitive Dysfunction Screening Checklist (CBD Complex); details: for Average Initial Score: day 0 (before treatment); for Average Final Score: day 60, BID
From the text: This example examines the ability of embodiments of the invention versus Anipryl® to treat cognitive decline.
The patient group is twenty dogs suffering from cognitive dysfunction syndrome, as determined by the Cognitive Dysfunction Screening Checklist. See G. Landsberg et al., 2003 HANDBOOK OF BEHAVIOR PROBLEMS OF THE DOG AND CAT (Elsevier Science Limited) (2003). The twenty dogs are broken into five groups of four dogs. The first group receives Anipryl® as the sole active agent; the second group receives a composition comprising HMW HA as the sole active agent; the third group receives a composition comprising CBD as the sole active agent; the fourth group receives a composition comprising HMW HA and CBD Complex as the active agents; and the fifth group receives a composition comprising HMW HA, CBD Complex, nicotinamide adenine dinucleotide (“NAD”), and phosphatidylserine as the active agents.
Each composition is administered for a period of sixty (60) days, twice per day (“BID”). The owner completes the Checklist on days 0 (“Initial Score”), 15, 30, 45, and 60 (“Final Score”) of treatment.
Each group is evaluated and Checklist scores averaged. The following scores are observed and the results depicted in FIG. 10: […]

| Molecule | Final Score [1] | Initial Score [1] | Initial Score [2] | Final Score [2] | Reduction in Temperature (° F.) [3] [° F.] | Improvement Score [4] | Average Initial Score [5] | Average Final Score [5] |
| --- | --- | --- | --- | --- | --- | --- | --- | --- |
| C=C(C)[C@@H]1CCC(C)=C[C@H]1c1c(O)cc(CCCCC)cc1O [CBD Alone, 2-[(1R,6R)-3-methyl-6-prop-1-en-2-ylcyclohex-2-en-1-yl]-5-pentylbenzene-1,3-diol] | 2 | 0 | 9 | 4 | 1.6 | 1.8 | 3 | 1.5 |
| hyaluronic acid [HMW HA Alone] | 3 | 0 | 9 | 5 | 2.1 | 1 | 3 | 2 |
